“And” between values parts separate entries of the source, which are not always exact repeats. Identical values can stand only once.
Assays:
[1] = A2780 xenograft study: body weight; format: in vivo, athymic female mice; settings: Group 2: 48 mg/kg IV QD + 24 mg/kg SC BID, individual mice, listed as PGX ODSH
Procedure: ODSH (50 mg/mL stock concentration) was made by Pyramid Laboratories, Inc. and stored at room temperature until use. As described further below, ODSH was administered either intravenously (IV), at a dose of 48 mg/kg and volume of 10 mL/kg, or subcutaneously (SC) at a dose of 24 mg/kg and volume of 5 ml/kg. Carboplatin obtained from a clinical supplier was stored at 4° C. until use. Carboplatin was administered by intraperitoneal injection (IP) at a dose of 80 mg/kg and volume of 10 mL/kg. Saline solution (0.9% NaCl) was used as a vehicle control for ODSH and administered by the same routes and in the same volumes as ODSH.
Human ovarian cancer cell line A2780 was used in the murine xenograft experiments as follows. Approximately 5×10^6 A2780 cells were used per mouse, injected subcutaneously into the right flank in 0.1 mL of 50% Matrigel/50% media. The study was initiated when tumors reached a size of 90-130 mg. 40 mice were used, 10 per treatment regimen. The mice were normal athymic female mice, aged 6-7 weeks, housed in microisolator cages and maintained under pathogen-free conditions. Tumor and body weights were measured three times per week.
Four treatment groups were studied.

[2] = system: CA19-9 (carbohydrate antigen 19-9); test: Clinical trial: serum level of CA19-9; format: in vivo, human; settings: for CA19-9 Serum levels: individual patients, ODSH adjunctive to gemcitabine and nab-paclitaxel
Procedure: Treatment consisted of a series of 28-day cycles, wherein the last day of one cycle (e.g., day 28, cycle 1) was immediately followed by the first day of the next cycle (e.g., day 1, cycle 2). In each 28-day treatment cycle, patients were dosed at days 1, 8, and 15 (three weeks of medication followed by one week of rest) as follows. First, nab-paclitaxel at 125 mg/m^2 was administered as an intravenous infusion over 30 minutes. […] Nab-paclitaxel and gemcitabine therapy was given as described in the prescribing information for Abraxane® and Gemzar®. See also, Von Hoff et al., 2011, J. Clinical Oncology 29:1-7). […]
Blood samples were also tested on day 1 of each treatment cycle for the serum level of CA19-9 (carbohydrate antigen 19-9) a marker used to assess the efficacy of the chemotherapy agents in treating pancreatic cancer. See. e.g., Maeda, 2011, Int. J. Clin. Oncol. 16(5):539-45. Reduction in the serum level of CA19-9 is indicative of chemotherapeutic efficacy against the pancreatic cancer. Tumor response and disease status was measured according to Response Evaluation Criteria in Solid Tumors (RECIST) Guidelines Version 1.1. Eur. J. Cancer, 2009, 45:228-247. A reduction of at least 30% in the sum of the diameters of target lesions (measurable lesions present at screening, up to 2 lesions per involved organ) was scored as a partial response. Patients were scored as having stable disease where the smallest sum of target lesion diameters neither decreased nor increased sufficiently to qualify as a partial response or progressive disease.

[3] = target: anti-thrombin III (Homo sapiens, UniProt P01008); settings: cited from earlier work
anti-thrombin III, sequence (P01008 33-464, species assumed): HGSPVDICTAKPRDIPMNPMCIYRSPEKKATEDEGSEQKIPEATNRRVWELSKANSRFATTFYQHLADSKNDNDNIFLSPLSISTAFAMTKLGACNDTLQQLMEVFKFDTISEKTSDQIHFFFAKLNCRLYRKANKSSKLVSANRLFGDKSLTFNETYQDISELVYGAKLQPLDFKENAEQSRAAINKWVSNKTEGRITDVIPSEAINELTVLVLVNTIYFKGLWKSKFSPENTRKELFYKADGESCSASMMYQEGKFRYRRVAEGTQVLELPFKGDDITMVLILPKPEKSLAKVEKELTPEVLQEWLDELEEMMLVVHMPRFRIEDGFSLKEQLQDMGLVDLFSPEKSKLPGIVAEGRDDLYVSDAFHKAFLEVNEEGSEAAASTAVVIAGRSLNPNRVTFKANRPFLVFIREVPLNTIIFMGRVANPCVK

For “substantially 2-O, 3-O desulfated heparin [ODSH]”, the “Individual weights, Day 1 Weight” value ([1]; Day 1 (baseline)) was 22.1 g and 20.3 g and 21.0 g and 21.8 g and 21.6 g and 21.4 g and 19.8 g (2×) and 20.9 g and 19.7 g, the “Day 4 Weight change” value ([1]; Day 4) was 3.6% and 1.5% and −0.5% and −1.8% and 6.5% and 1.9% and −1.0% and 5.6% and 10.0% and −2.5% and the “Individual weights, Day 4 Weight” value ([1]; Day 4) was 22.9 g and 20.6 g and 20.9 g (2×) and 21.4 g and 23.0 g (2×) and 21.8 g and 19.6 g and 19.2 g. The “Day 6 Weight change” value ([1]; Day 6) was 5.0% and 1.5% and 1.0% and −1.4% and 13.4% and 2.8% and 2.0% and 7.6% and 8.1% and −2.5%, the “Individual weights, Day 6 Weight” value ([1]; Day 6) was 23.2 g and 20.6 g and 21.2 g and 21.5 g and 24.5 g and 22.0 g and 20.2 g and 21.3 g and 22.6 g and 19.2 g and the “Day 8 Weight change” value ([1]; Day 8) was 5.0% and 5.4% and 2.9% and 2.3% and 16.2% and 5.6% (2×) and 12.1% and 6.7% and 2.0%. For the same substance, the “Individual weights, Day 8 Weight” value ([1]; Day 8) was 23.2 g and 21.4 g and 21.6 g and 22.3 g (2×) and 25.1 g and 22.6 g and 20.9 g and 22.2 g and 20.1 g, the “Day 11 Weight change” value ([1]; Day 11) was 4.5% and 10.3% and 4.8% (2×) and 4.1% and 17.6% and 8.4% and 5.6% and 14.6% and 6.1% and the “Individual weights, Day 11 Weight” value ([1]; Day 11) was 23.1 g and 22.4 g and 22.0 g and 22.7 g (2×) and 25.4 g and 23.2 g and 20.9 g (2×) and 21.9 g. The “Day 14 Weight change” value ([1]; Day 14) was 10.0% and 14.3% and 8.6% and 8.7% and 23.6% and 11.2% (2×) and 11.1% and 17.2% and 9.6%, the “Individual weights, Day 14 Weight” value ([1]; Day 14) was 24.3 g and 23.2 g (2×) and 22.8 g and 23.7 g and 26.7 g and 23.8 g and 22.0 g and 22.9 g and 21.9 g and the “Day 18 Weight change” value ([1]; Day 18) was 5.9% and 14.3% and 11.0% and 6.4% and 22.2% and 11.2% and 1.0% and 10.1% and 10.0% and 7.6%. The “Individual weights, Day 18 Weight” value ([1]; Day 18) was 23.4 g and 23.2 g (2×) and 23.3 g and 26.4 g and 23.8 g and 20.0 g and 21.8 g and 23.0 g and 21.2 g, the “Day 21 Weight change” value ([1]; Day 21) was 7.2% and 18.2% and 10.5% and 10.1% and 22.2% and 12.6% and 3.0% and 10.6% and 9.6% and 11.2% and the “Individual weights, Day 21 Weight” value ([1]; Day 21) was 23.7 g and 24.0 g (2×) and 23.2 g and 26.4 g and 24.1 g and 20.4 g and 21.9 g (2×) and 22.9 g. For the same substance, the “Day 25 Weight change” value ([1]; Day 25) was 19.7% and 31.0% and 9.6% and 18.2% and 14.8%, the “Individual weights, Day 25 Weight” value ([1]; Day 25) was 24.3 g and 28.3 g and 21.7 g and 23.4 g and 24.0 g and the “Day 28 Weight change” value ([1]; Day 28) was 23.2% and 32.9% and 15.7% and 20.2% and 15.8%. For the same substance, the “Individual weights, Day 28 Weight” value ([1]; Day 28) was 29.0 g and 28.7 g and 22.9 g and 23.8 g and 24.2 g, the “Patients in whom serum CA19-9 level decreased” value ([2]; ODSH adjunct to gemcitabine/nab-paclitaxel) was 8 of 10 and the “CA19-9 Serum levels” value ([2]; Cycle 1 Day 1) was 395 U/mL and 70,086 U/mL and 2,138 U/mL and 483 U/mL and 11 U/mL and 326 U/mL and 4,775 U/mL and 125 U/mL and 6,186 U/mL and 6,275 U/mL. The “CA19-9 Serum levels” value ([2]; Cycle 2 Day 1) was 490 U/mL and 22,958 U/mL and 502 U/mL and 453 U/mL and 17 U/mL and 710 U/mL and 5,934 U/mL and 71 U/mL and 4,392 U/mL and 4,018 U/mL, the “CA19-9 Serum levels” value ([2]; Cycle 3 Day 1) was 251 U/mL and 10,286 U/mL and 328 U/mL and 205 U/mL and 15 U/mL and 164 U/mL and 8,529 U/mL and 27 U/mL and 2,669 U/mL and 1,433 U/mL and the “CA19-9 Serum levels” value ([2]; Cycle 4 Day 1) was 108 U/mL and 288 U/mL and 110 U/mL and 20 U/mL and 69 U/mL and 9,926 U/mL and 15 U/mL and 2405 U/mL and 348 U/mL. For the same substance, the “Kd, affinity for anti-thrombin III” value [3] was roughly 4 mg/mL and the Kd ([3]; read-out: Kd, affinity for anti-thrombin III) was roughly 339 µM.

From patent US11229664B2, “Treatment of myelosuppression” (priority 2012, dated 2022)
